From patent US6916471B2, “Red blood cells loaded with S-nitrosothiol and uses therefor” (Duke University, priority 1995, dated 2005)

Legend:
rabbit aortic ring [1] = experiment: CysNOEE-treated human blood, rabbit aortic ring bioassay; details: CysNOEE:heme 1:100 to 10:1; 21% and 1% oxygen
Method: S-nitrosocysteine ethyl ester (CysNOEE) was added to human whole blood to interact with the red blood cells. CysNOEE:Heme (see FIG. 22) is the molar ratio of CysNOEE to heme in hemoglobin contained in red blood cells, for CysNOEE incubated with blood for 5 minutes at room temperature. After these incubations at different CysNOEE:heme ratios (1:100, 1:10, 1:1 and 10:1; see FIG. 22), red blood cell membranes were isolated by lysis and centrifugation, and S-nitrosothiol (SNO) content of the isolated membranes was determined by photolysis chemiluminescence assay. The concentrations of SNO in the red blood cell membranes were plotted in FIG. 22 as membrane SNO. Bioactivity of red blood cells—from release of biologically active NO—was determined in a rabbit aortic ring bioassay under two different concentrations of oxygen, and the results are plotted in FIG. 22 as 21% oxygen, vasoactivity, and 1% oxygen, vasoactivity.

[2] = test system: patient with primary pulmonary hypertension; experiment: Inhaled ethyl nitrite in patients with primary pulmonary hypertension, red blood cell NO; format: in vivo, human; details: PPH patients
Method: A patient with primary pulmonary hypertension, with blood having starting values for SNO-hemoglobin, iron nitrosylhemoglobin and total NO/hemoglobin molar ratio as shown in the left bar of FIG. 15, was given an NO-donating drug by inhalation. Ethyl nitrite was diluted in ethanol. Oxygen carrier gas was passed though the ethyl nitrite solution and delivered to the patient at 10 liters/min. After 10 minutes, blood was withdrawn and analyzed by photolysis chemoluminescence. Results are shown in the right bar of FIG. 15, for the patient's blood after treatment. SNO-Hb and total Hb-bound NO levels were depressed in the patient relative to normal controls, but rose during inhalation of ethyl nitrite gas. The experiment was repeated for other patients (n=5).

rabbit aortic ring [3] = experiment: Rabbit aortic ring perfused with blood of PPH patient after ethyl nitrite; details: 1% oxygen
Text: The downward deflection on the plot indicates a dilation of the blood vessel, which for the “NO” blood, occurred for approximately 30 seconds.

rabbit aortic ring [4] = experiment: Rabbit aortic ring bioassay of CYSNO-treated blood with or without glutathione; details: 100 μM
Method: NO-loaded red blood cells were produced by incubating whole human blood in a solution comprising S-nitrosocysteine (CYSNO) at a molar ratio of 1:100 CYSNO:hemoglobin for 5 minutes at room temperature. The bioactivity of the treated blood was tested in a rabbit aortic ring bioassay, in the presence (+GSH) or absence (−GSH) of 100 μM glutathione.

## CCOC(=O)[C@@H](N)CSN=O [S-nitrosocysteine ethyl ester]
Rabbit aortic ring [1]
  vasoactivity of treated red blood cells: relaxes blood vessels, most effectively under ischemic conditions

## CCON=O [ethyl nitrite]
[2]; inhaled for 10 minutes, n=5
  increase in SNO-Hb in blood: statistically significant
  levels of iron nitrosylhemoglobin before and after treatment: no statistical difference
[2]; inhaled
  pulmonary vascular resistance and systemic oxygenation: decreases in pulmonary vascular resistance and improved systemic oxygenation
Rabbit aortic ring [3]
  duration of dilation of aortic ring by blood of treated patient: approximately 30 seconds

## N[C@@H](CCC(=O)N[C@@H](CS)C(=O)NCC(=O)O)C(=O)O [Glutathione, glutathione]
Rabbit aortic ring [4]
  effect on red blood cell-mediated vasodilation: potentiates the bioactivity of red blood cell-mediated vasodilation
